EPA's ToxRefDB 2

Experiments:
rat [1] = conditions: Carcinogenicity; fischer; Oral; Feed; dose end: 2 year; group: systemic; systemic / in life observation / body weight / body weight
rat [2] = conditions: Prenatal developmental toxicity study; sprague dawley; Oral; Gavage/Intubation; dose end: 7 GD; group: maternal; reproductive / reproductive performance / estrous cycle / corpora lutea + reproductive / reproductive performance / postimplantation loss / …
rat [3] = conditions: Sub-acute repeat dose toxicity, sprague dawley, Oral, Gavage/Intubation, dose end: 28 day, group: systemic
rat [4] = conditions: Developmental neurotoxicity study; sprague dawley; Injection; Subcutaneous; dose end: 345 PND; group: cannot be grouped; systemic / in life observation / body weight / offspring (pup) weight + systemic / in life observation / clinical signs / abnormal movements…
rat [5] = conditions: Sub-acute repeat dose toxicity, sprague dawley, Oral, Gavage/Intubation, dose end: 14 day, group: systemic
primate [6] = conditions: Sub-acute repeat dose toxicity; Oral; Gavage/Intubation; dose end: 21 day; group: systemic; systemic / in life observation / clinical signs / inappetence + systemic / in life observation / clinical signs / abnormal feces + systemic…
rat [7] = conditions: Sub-acute repeat dose toxicity, sprague dawley, Oral, Gavage/Intubation, dose end: 28 day, group: systemic; remark: listed apart in the source
primate [8] = conditions: Sub-acute repeat dose toxicity; Oral; Gavage/Intubation; dose end: 30 day; group: systemic; systemic / clinical chemistry / protein / protein + systemic / hematology / erythrocyte (rbc) count differential / erythrocyte (rbc) + …
primate [9] = conditions: Sub-acute repeat dose toxicity; Oral; Gavage/Intubation; dose end: 19 day; group: systemic; systemic / clinical chemistry / creatinine / creatinine + systemic / clinical chemistry / urea nitrogen / urea nitrogen + systemic / …
rat [10] = conditions: Fertility (Segment I), sprague dawley, Oral, Gavage/Intubation, dose end: 14 GD
mouse = conditions: Subchronic oral toxicity in rodents, cd1, Gavage/Intubation, dose end: 13 weeks, group: systemic, systemic / in life observation / body weight / body weight + systemic / in life observation / body weight / body weight gain + systemic / in…
dog [11] = conditions: Sub-acute repeat dose toxicity, beagle, Oral, Gavage/Intubation, dose end: 4 week, group: systemic
rat [12] = conditions: Prenatal developmental toxicity study, sprague dawley, Oral, Gavage/Intubation, dose end: 17 GD, group: maternal
rat [13] = conditions: Fertility (Segment I), sprague dawley, Oral, Gavage/Intubation, dose end: 7 GD
rat [14] = conditions: Fertility (Segment I), sprague dawley, Oral, Gavage/Intubation, dose end: 7 GD; remark: listed apart in the source
rabbit = conditions: Prenatal developmental toxicity study, other, Oral, Gavage/Intubation, dose end: 18 GD
rat [15] = conditions: Sub-acute repeat dose toxicity, other, Oral, Gavage/Intubation, dose end: 29 day, group: systemic
dog [16] = conditions: Chronic toxicity, beagle, Oral, Gavage/Intubation, dose end: 6 month, group: systemic
dog [17] = conditions: Chronic toxicity, beagle, Oral, Gavage/Intubation, dose end: 12 month, group: systemic
rat [18] = conditions: Sub-acute repeat dose toxicity, sprague dawley, Oral, Gavage/Intubation, dose end: 1 month, group: systemic
rat [19] = conditions: Chronic toxicity; sprague dawley; Oral; Gavage/Intubation; dose end: 6 month; group: systemic; systemic / clinical chemistry / estradiol / estradiol + systemic / clinical chemistry / prolactin / prolactin + systemic / clinical …
rat [20] = conditions: Prenatal developmental toxicity study, Sprague Dawley OFA, Oral, Gavage/Intubation, dose end: 17 GD, group: maternal
[21] = systemic / organ weight / heart / nos + systemic / organ weight / thymus / nos + systemic / pathology microscopic / ovary / follicle count
[22] = systemic / clinical chemistry / calcium / calcium + systemic / clinical chemistry / protein / protein + systemic / hematology / erythrocyte…
[23] = systemic / hematology / erythrocyte (rbc) count differential / erythrocyte (rbc) + systemic / hematology / hematocrit (hct) / hematocrit (…
[24] = systemic / pathology gross / full gross necropsy / ulcer
[25] = systemic / pathology gross / full gross necropsy / ulcer + systemic / clinical chemistry / protein / protein + systemic / hematology / …
[26] = group: maternal, reproductive / reproductive performance / fertility / fertility
[27] = group: parental, systemic / in life observation / body weight / body weight gain + systemic / in life observation / clinical signs / [other] + systemic / in …
[28] = systemic / in life observation / clinical signs / pulse/pressure + systemic / urinalysis / protein / protein
[29] = systemic / in life observation / clinical signs / pulse/pressure + systemic / urinalysis / protein / protein + systemic / in life …
[30] = systemic / in life observation / body weight / body weight gain + systemic / in life observation / clinical signs / drooping eyelids (ptosis…
[31] = group: maternal, reproductive / reproductive performance / fertility / fertility + reproductive / reproductive performance / implantations / implantations + …
[32] = group: parental, systemic / in life observation / clinical signs / drooping eyelids (ptosis) + systemic / pathology gross / vagina / dilatation
[33] = group: maternal, reproductive / reproductive performance / estrous cycle / abnormal + reproductive / reproductive performance / estrous cycle / length
[34] = group: maternal, reproductive / reproductive performance / estrous cycle / abnormal + reproductive / reproductive performance / estrous cycle / length + …
[35] = group: parental, systemic / in life observation / body weight / body weight gain + systemic / in life observation / clinical signs / drooping eyelids (ptosis…
[36] = group: developmental, systemic / in life observation / body weight / fetal weight
[37] = group: maternal, systemic / in life observation / body weight / body weight gain + systemic / in life observation / food consumption / food consumption + …
[38] = systemic / hematology / platelet / platelet + systemic / in life observation / body weight / body weight + systemic / in life observation / …
[39] = systemic / in life observation / clinical signs / drooping eyelids (ptosis) + systemic / in life observation / clinical signs / lacrimation …
[40] = systemic / clinical chemistry / albumin / albumin + systemic / clinical chemistry / albumin-globulin ratio / albumin-globulin ratio + …
[41] = systemic / in life observation / clinical signs / [other] + systemic / in life observation / clinical signs / defecation (diarrhea) + …
[42] = systemic / clinical chemistry / bilirubin / total bilirubin + systemic / hematology / platelet / platelet + systemic / in life observation…
[43] = systemic / clinical chemistry / bilirubin / total bilirubin + systemic / in life observation / clinical signs / [other] + systemic / in life…
[44] = systemic / clinical chemistry / triglycerides / triglycerides + systemic / in life observation / body weight / body weight gain + systemic…
[45] = systemic / pathology gross / vagina / dilatation + systemic / pathology gross / skin / [other]
[46] = systemic / in life observation / body weight / body weight + systemic / in life observation / clinical signs / drooping eyelids (ptosis)
[47] = systemic / in life observation / clinical signs / drooping eyelids (ptosis)

Cc1ccc2ncccc2c1 [6-Methylquinoline]
LEL (rat [1]): 25 mg/kg/day
LOAEL (rat [1]): > 25 mg/kg/day
NEL (rat [1]): < 25 mg/kg/day
NOAEL (rat [1]): ≥ 25 mg/kg/day

CS(=O)(=O)OCCCCOS(C)(=O)=O [Busulfan]
LEL (rat [2]): 1.5 mg/kg/day
LOAEL (rat [2]): > 1.5 mg/kg/day
NEL (rat [2]): 0.5 mg/kg/day
NOAEL (rat [2]): ≥ 1.5 mg/kg/day
LOAEL (rat [3]; [21]): > 1.5 mg/kg/day
NEL (rat [3]; [21]): 0.1 mg/kg/day
NOAEL (rat [3]; [21]): ≥ 1.5 mg/kg/day
LEL (rat [3]; systemic / pathology microscopic / ovary / follicle count): 0.5 mg/kg/day

C[C@@H]1C[C@H]2[C@@H]3CCC4=CC(=O)C=C[C@]4(C)[C@@]3(F)[C@@H](O)C[C@]2(C)[C@@]1(O)C(=O)CO [Dexamethasone]
LEL (rat [4]): 3 mg/kg/day
LOAEL (rat [4]): > 3 mg/kg/day
NEL (rat [4]): < 3 mg/kg/day
NOAEL (rat [4]): ≥ 3 mg/kg/day

NC(=O)n1c(O)c(C(=O)c2cc(Cl)cs2)c2cc(Cl)ccc21
LOAEL (rat [5]; [22]): > 100 mg/kg/day
NOAEL (rat [5]; [22]): ≥ 100 mg/kg/day
LEL (rat [5]; [23]): 3 mg/kg/day
NEL (rat [5]; [23]): < 3 mg/kg/day
LEL (primate [6]): 3 mg/kg/day
LOAEL (primate [6]): > 3 mg/kg/day
NEL (primate [6]): < 3 mg/kg/day
NOAEL (primate [6]): ≥ 3 mg/kg/day
LEL (rat [7]; [24]): 2 mg/kg/day
NEL (rat [7]; [24]): < 2 mg/kg/day
LOAEL (rat [7]; [25]): > 8 mg/kg/day
NOAEL (rat [7]; [25]): ≥ 8 mg/kg/day
LEL (primate [8]): 2 mg/kg/day
LOAEL (primate [8]): > 6 mg/kg/day
NEL (primate [8]): < 2 mg/kg/day
NOAEL (primate [8]): ≥ 6 mg/kg/day
LEL (primate [9]): 8 mg/kg/day
LOAEL (primate [9]): > 8 mg/kg/day
NEL (primate [9]): < 8 mg/kg/day
NOAEL (primate [9]): ≥ 8 mg/kg/day

NC(=O)Cn1c(=O)cc(CCN2CCN(c3nccc4sccc34)CC2)c2ccc(F)cc21 [Trelanserin]
LEL (rat [10]; [26]): 150 mg/kg/day
LOAEL (rat [10]; [26]): > 150 mg/kg/day
NEL (rat [10]; [26]): 20 mg/kg/day
NOAEL (rat [10]; [26]): ≥ 150 mg/kg/day
LOAEL (rat [10]; [27]): > 150 mg/kg/day
NEL (rat [10]; [27]): 4 mg/kg/day
NOAEL (rat [10]; [27]): ≥ 150 mg/kg/day
LEL (rat [10]; group: parental, systemic / in life observation / clinical signs / [other] + systemic / in life observation / clinical signs / drooping eyelids (ptosis) + …): 20 mg/kg/day
LEL (mouse): 62.5 mg/kg/day
LOAEL (mouse): 250 mg/kg/day
NEL (mouse): < 62.5 mg/kg/day
NOAEL (mouse): 125 mg/kg/day
LEL (dog [11]; [28]): 1 mg/kg/day
NEL (dog [11]; [28]): < 1 mg/kg/day
LOAEL (dog [11]; [29]): > 16 mg/kg/day
NOAEL (dog [11]; [29]): ≥ 16 mg/kg/day
LOAEL (rat [12]; [30]): > 20 mg/kg/day
NEL (rat [12]; [30]): 1 mg/kg/day
NOAEL (rat [12]; [30]): ≥ 20 mg/kg/day
LEL (rat [12]; systemic / in life observation / clinical signs / drooping eyelids (ptosis) + systemic / in life observation / clinical signs / red or …): 5 mg/kg/day
LEL (rat [13]; [31]): 80 mg/kg/day
LOAEL (rat [13]; [31]): > 80 mg/kg/day
NEL (rat [13]; [31]): < 80 mg/kg/day
NOAEL (rat [13]; [31]): ≥ 80 mg/kg/day
LEL (rat [13]; [32]): 80 mg/kg/day
LOAEL (rat [13]; [32]): > 80 mg/kg/day
NEL (rat [13]; [32]): < 80 mg/kg/day
NOAEL (rat [13]; [32]): ≥ 80 mg/kg/day
LEL (rat [14]; [33]): 4 mg/kg/day
NEL (rat [14]; [33]): < 4 mg/kg/day
LOAEL (rat [14]; [34]): > 20 mg/kg/day
NOAEL (rat [14]; [34]): ≥ 20 mg/kg/day
LEL (rat [14]; [35]): 10 mg/kg/day
LOAEL (rat [14]; [35]): > 20 mg/kg/day
NEL (rat [14]; [35]): 4 mg/kg/day
NOAEL (rat [14]; [35]): ≥ 20 mg/kg/day
LEL (rabbit; [36]): 10 mg/kg/day
LOAEL (rabbit; [36]): > 30 mg/kg/day
NEL (rabbit; [36]): 5 mg/kg/day
NOAEL (rabbit; [36]): ≥ 30 mg/kg/day
LEL (rabbit; group: maternal, reproductive / reproductive performance / postimplantation loss / postimplantation loss): 5 mg/kg/day
NEL (rabbit; group: maternal, reproductive / reproductive performance / postimplantation loss / postimplantation loss + systemic / in life observation / body weight / …): 2 mg/kg/day
LOAEL (rabbit; [37]): > 30 mg/kg/day
NOAEL (rabbit; [37]): ≥ 30 mg/kg/day
LOAEL (rat [15]; [38]): > 100 mg/kg/day
NOAEL (rat [15]; [38]): ≥ 100 mg/kg/day
LEL (rat [15]; [39]): 4 mg/kg/day
NEL (rat [15]; [39]): < 4 mg/kg/day
LOAEL (dog [16]; [40]): > 100 mg/kg/day
NOAEL (dog [16]; [40]): ≥ 100 mg/kg/day
LEL (dog [16]; [41]): 4 mg/kg/day
NEL (dog [16]; [41]): < 4 mg/kg/day
LOAEL (dog [17]; [42]): > 80 mg/kg/day
NOAEL (dog [17]; [42]): ≥ 80 mg/kg/day
LEL (dog [17]; [43]): 2 mg/kg/day
NEL (dog [17]; [43]): < 2 mg/kg/day
LOAEL (rat [18]; [44]): 20 mg/kg/day
NOAEL (rat [18]; [44]): 2 mg/kg/day
LEL (rat [18]; [45]): 2 mg/kg/day
NEL (rat [18]; [45]): < 2 mg/kg/day
LEL (rat [19]): 4 mg/kg/day
LOAEL (rat [19]): 20 mg/kg/day
NEL (rat [19]): < 4 mg/kg/day
NOAEL (rat [19]): 4 mg/kg/day
LOAEL (rat [20]; [46]): > 20 mg/kg/day
NOAEL (rat [20]; [46]): ≥ 20 mg/kg/day
LEL (rat [20]; [47]): 5 mg/kg/day
NEL (rat [20]; [47]): < 5 mg/kg/day
